Reference: PMC12598616, “Design and optimization of caspase-1-responsive fluorescent probes for pyroptosis imaging and anti-pyroptosis drug screening” (Chemical Science, 2025)

Key:
[1] = system: Cas-1 in NP cell spheroids; experiment: Imaging in nucleus pulposus 3D cell spheroids; type: cell-based, rat; conditions: H2O2 2 mM 30, 60, 90 min; FPy1 5 μM; compared with 2D cells
Excerpt: (§1) With advancing age, the prevalence of degenerative bone and joint disorders (DBJDs), such as intervertebral disc degeneration (IVDD) and osteoarthritis (OA), increases markedly among middle-aged and elderly individuals.[30] Chronic inflammation has been identified as the underlying cause of DBJDs. In particular, inflammasome-mediated pyroptosis has been recognized as a primary contributor to sustained inflammatory responses.[31] Consequently, pyroptosis-associated biomarkers represent promising indicators for the diagnosis and monitoring of DBJDs. IVDD, a chronic degenerative condition closely related to natural aging, has become one of the leading causes of disability worldwide.[32] […] The imaging results indicated a positive correlation between fluorescence intensity and H2O2-stimulation time (Fig. 4b). […] Encouraged by the promising imaging results of FPy1 in NP cells and cell spheroids, we further assessed its capability for imaging pytoptosis in vivo. […] Following intradiscal injection of FPy1, the fluorescence images of the tail modeling site were obtained from the dorsal aspect. […] Histological scoring result corroborated these findings, reflecting the same trends as with fluorescence imaging observed using FPy1 (Fig. S13b). […]
(§2) The cytotoxicity of FPy1 and YPy1 to THP-1 was evaluated by cell counting kit-8 (CCK-8). […]

Cas-1 in THP-1 cells = experiment: Imaging and flow cytometry in Cas-1 siRNA knockdown THP-1 cells; type: cell-based; conditions: caspase-1 siRNA, LPS 1 μg/mL and Nig 10 μM
Description: Cytotoxicity assay (CCK-8)
The cytotoxicity of FPy1 and YPy1 to THP-1 was evaluated by cell counting kit-8 (CCK-8). Briefly, the THP-1 cells were seeded in 96-well plates (5000 cells/well) and cultured at 37 °C for 24 hours. Various concentrations of FPy1 or YPy1 (0, 2.5, 5, 10, 20, 30, 40, 50 μM) in RPMI 1640 medium were added, and the cells were kept incubation for 12 hours. Then, the cells were washed with PBS and incubated in the 100 μL fresh medium with 10 μL CCK8 dye for an additional 2 hours. The absorbance was measured at 450 nm using a Tecan Infinite M1000 Multi-function microplate reader, and cell viability was calculated using the formula:
Cell viability (%) = [(OD test-ODblank)/(ODcontrol-ODblank)] ×100%
Intracellular imaging with FPy1 in THP-1 cells
THP-1 cells were seeded in dishes and cultured overnight. […] The fluorescence imaging was performed under the excitation at 514 nm with signal collection in the range […]
for 4 hours, the cells were further treated with Nig (10 μM) for 2 hours. […] The distribution of FPy1 was analyzed by collecting organelle-specific dye fluorescence at 495-525 nm with 488 nm excitation, while simultaneously detecting FPy1 fluorescence at 530-610 nm with 514 nm excitation. […]
Nucleus pulposus cells were isolated from discs and resuspended in 1mL DMEM/F12 medium containing 10 μM ITS-A. A total of […] were counted and transferred into centrifuge tubes. […]

[2] = system: Cas-1 in primary NP cells; experiment: Intracellular imaging in nucleus pulposus cells; type: cell-based, rat; conditions: H2O2 2 mM 30, 60, 90 min; FPy1 5 μM 1 h
Excerpt: as §1, §2

Substance: –FLTDG– [FPy1, RhoB donor, hNR quencher]
- fluorescence enhancement in NP spheroids [1]: the fluorescence enhancement in the spheroids was more pronounced
- fluorescence intensity in Si-Casp1 group (flow cytometry) (Cas-1 in THP-1 cells): lower than that in the Si-Scramble group
- intracellular fluorescence intensity in Si-Casp1 group (confocal) (Cas-1 in THP-1 cells; FPy1 5 μM): significantly lower than that in the Si-Scramble group
- intracellular fluorescence intensity in NP cells [2]: increased with the duration of H2O2 stimulation
